One data set addresses T1, human EAAT3 (Homo sapiens, UniProt P43005).
T1 construct: expressed in transfected cells; host or cells: HEK-293
T1 sequence (P43005 1-524): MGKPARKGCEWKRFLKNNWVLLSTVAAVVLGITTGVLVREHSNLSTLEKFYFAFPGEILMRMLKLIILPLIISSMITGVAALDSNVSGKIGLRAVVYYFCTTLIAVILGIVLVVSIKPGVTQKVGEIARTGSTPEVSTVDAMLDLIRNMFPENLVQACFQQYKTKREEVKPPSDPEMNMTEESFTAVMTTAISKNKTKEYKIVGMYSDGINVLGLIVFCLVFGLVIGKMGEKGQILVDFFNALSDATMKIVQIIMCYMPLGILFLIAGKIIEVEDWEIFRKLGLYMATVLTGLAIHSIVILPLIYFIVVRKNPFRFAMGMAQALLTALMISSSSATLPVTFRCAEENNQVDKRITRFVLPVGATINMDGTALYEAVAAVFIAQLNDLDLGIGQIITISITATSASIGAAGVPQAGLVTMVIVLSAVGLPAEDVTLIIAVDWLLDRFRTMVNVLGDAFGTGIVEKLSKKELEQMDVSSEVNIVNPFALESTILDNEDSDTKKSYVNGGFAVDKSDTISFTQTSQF
Description: FLIPR Membrane Potential (FMP) assay. It counts as cell-based. The conditions noted are these: HEK-293 cells stably expressing human EAAT3; L-glutamate as agonist at EC80; antagonist applied 15 min before; Kb by Cheng-Prusoff from IC50. As to the method: The FLIPR Membrane Potential (FMP) assay
HEK-293 cells stably expressing human EAAT3 were seeded at 55 000 cells/well in growth medium (DMEM glutamate free (Invitrogen 11960-044), 1% Pen Strep (10 ml/l GIBCO BRL N^o 15140-023), 10% FCS non dialysed heat inactivated, 5 mg/l puromycin) in poly-D-lysine treated 96-well black microtiter plates with clear-bottom. After 24 h, the growth medium was removed and 100 μl/well of Krebs buffer (140 mM NaCl, 4.7 mM KCl, 2.5 mM CaCl2), 1.2 mM MgCl2, 11 mM HEPES, 10 mM D-glucose, pH=7.4) added. The cells were then loaded by adding 100 μl/well FMP assay dye (FLIPR Membrane Potential assay reagent, Molecular Devices). The 96-well plates were then incubated at 37° C. for 1 h. The depolarization of the cells will cause more dye to enter in the cells, where it will bind to intracellular proteins and lipids and cause an increase in the fluorescence signal. Antagonist potency at human EAAT3 was determined by using L-glutamate as agonist at a concentration which gives 80% of the maximum response. The antagonists were applied 15 min before the application of the agonist L-glutamate. The assays were performed at room temperature and measurements done by using a Fluorometric Imaging Plate Reader (FLIPR, Molecular Devices) and filter #2. Responses were measured as peak increase in fluorescence minus basal (i.e. fluorescence without addition of L-glutamate). Kb was determined using the Cheng-Prusoff equation Kb=IC50/[1+(A/EC50)], where IC50 is the concentration of the antagonist producing 50% inhibition, A is the concentration of the agonist against which the IC50 is being determined (at EC80) and EC50 is the concentration of the agonist producing 50% […].

In general, Kb refers to the equilibrium dissociation constant of an antagonist, usually derived from a functional assay. A high value points to lower antagonist affinity. One may read the melting point as the temperature of the solid-liquid transition. `CC(C)c1ccc(-c2cc(C(=O)NC(C)(C)C)cc(-c3ccnn3C(C)(C)C)n2)cc1` [Example 20, N-tert-Butyl-2-(2-tert-butyl-pyrazol-3-yl)-6-(4-propan-2-yl-phenyl)-pyridine-4-carboxamide]: the melting point was 202 °C. Also, at human EAAT3, the Kb worked out at 100 nM.
For `CC(C)(NC(=O)c1cc(-c2ccc(F)cc2)nc(-c2ccnn2C(C)(C)C)c1)C1CC1` [Example 15, 2-(2-tert-Butyl-pyrazol-3-yl)-N-(2-cyclopropyl-propan-2-yl)-6-(4-fluorophenyl)-pyridine-4-carboxamide], in that order: 169 °C and 135 nM.
In the same order, the values of `CC(C)(C#N)NC(=O)c1cc(-c2ccc(F)cc2)nc(-c2ccnn2C(C)(C)C)c1` [Example 14, 2-(2-tert-Butylpyrazol-3-yl)-N-(2-cyano-propan-2-yl)-6-(4-fluoro-phenyl)-pyridine-4-carboxamide] are 213 °C and 71 nM.
For `CC(C)(C)NC(=O)c1cc(-c2ccc(F)cc2)nc(-c2ccnn2CC2CC2)c1` [Example 12, N-tert-Butyl-2-[2-(cyclopropylmethyl)-pyrazol-3-yl]-6-(4-fluorophenyl)-pyridine-4-carboxamide], in that order: 203 °C and 310 nM.
As to `CCn1nccc1-c1cc(C(=O)NC(C)(C)C)cc(-c2ccc(C(F)(F)F)cc2)n1` [Example 41, N-tert-Butyl-2-(2-ethyl-pyrazol-3-yl)-6-[4-(trifluoromethyl)-phenyl]-pyridine-4-carboxamide], the melting point was 186 °C. On human EAAT3, this compound showed a Kb of 750 nM.
Turning to `CC(C)(CO)NC(=O)c1cc(-c2ccc(F)cc2)nc(-c2ccnn2C(C)(C)C)c1` [Example 16, 2-(2-tert-Butyl-pyrazol-3-yl)-6-(4-fluorophenyl)-N-(1-hydroxy-2-methyl-propan-2-yl)-pyridine-4-carboxamide], the melting point was 142 °C. For the same compound, the Kb at human EAAT3 turned out to be 80 nM.
For `CC(C)n1nccc1-c1cc(C(=O)NC(C)(C)C(F)(F)F)cc(-c2ccc(Cl)cc2)n1` [Example 50, 2-(4-Chlorophenyl)-6-(2-propan-2-yl-pyrazol-3-yl)-N-(1,1,1-trifluoro-2-methylpropan-2-yl)-pyridine-4-carboxamide], in that order: 177 °C and 1430 nM.
In the same order, the values of `CC(C)n1nccc1-c1cc(C(=O)NC(C)(C)C2CC2)cc(-c2ccc(F)cc2)n1` [Example 46, N-(2-Cyclopropyl-propan-2-yl)-2-(4-fluorophenyl)-6-(2-propan-2-yl-pyrazol-3-yl)-pyridine-4-carboxamide] are 173 °C and 550 nM.
For `CC1(NC(=O)c2cc(-c3ccc(F)cc3)nc(-c3ccnn3C(C)(C)C)c2)CCS(=O)(=O)C1` (racemic) [Example 9, (RS)-2-(2-tert-Butylpyrazol-3-yl)-6-(4-fluorophenyl)-N-(3-methyl-1,1-dioxothiolan-3-yl)-pyridine-4-carboxamide], in that order: 192 °C and 190 nM.
`CC(C)n1nccc1-c1cc(C(=O)NC(C)(C)C)cc(-c2ccc(C(F)(F)F)cc2)n1` [Example 6, N-tert-Butyl-2-(2-propan-2-yl-pyrazol-3-yl)-6-[4-(trifluoromethyl)-phenyl]-pyridine-4-carboxamide]: the melting point worked out at 173 °C. For the same compound, on human EAAT3, the Kb turned out to be 450 nM.
For `Cc1ccc(-c2cc(C(=O)NC(C)(C)C)cc(-c3ccnn3C(C)(C)C)n2)cc1F` [Example 26, N-tert-Butyl-2-(2-tert-butyl-pyrazol-3-yl)-6-(3-fluoro-4-methyl-phenyl)-pyridine-4-carboxamide], in that order: 207 °C and 89 nM.
`CC(C)n1nccc1-c1cc(C(=O)NC(C)(C)C)cc(-c2ccccc2)n1` [Example 28, N-tert-Butyl-2-phenyl-6-(2-propan-2-yl-pyrazol-3-yl)-pyridine-4-carboxamide] had a melting point of 197 °C. On human EAAT3, this compound returned a Kb of 310 nM.
For `Cn1nccc1-c1cc(C(=O)NC(C)(C)C)cc(-c2ccc(Cl)cc2)n1` [Example 1, N-tert-Butyl-2-(4-chlorophenyl)-6-(2-methyl-pyrazol-3-yl)-pyridine-4-carboxamide], in that order: 184 °C and 370 nM.
`CC(C)(C)NC(=O)c1cc(-c2ccccc2)nc(-c2ccnn2C(C)(C)C)c1` [Example 27, N-tert-Butyl-2-(2-tert-butyl-pyrazol-3-yl)-6-phenyl-pyridine-4-carboxamide]: the melting point came to 209 °C. The compound further had a Kb at human EAAT3 of 94 nM.
In the same order, the values of `CC(C)n1nccc1-c1cc(C(=O)NC(C)(C)CO)cc(-c2ccc(F)cc2)n1` [Example 47, 2-(4-Fluorophenyl)-N-(1-hydroxy-2-methyl-propan-2-yl)-6-(2-propan-2-yl-pyrazol-3-yl)-pyridine-4-carboxamide] are 180 °C and 310 nM.
In the same order, the values of `CC(C)(C)NC(=O)c1cc(-c2ccc(F)cc2)nc(-c2ccnn2C2CC2)c1` [Example 48, N-tert-Butyl-2-(2-cyclopropyl-pyrazol-3-yl)-6-(4-fluorophenyl)-pyridine-4-carboxamide] are 175 °C and 240 nM.
On to `CC(C)n1nccc1-c1cc(C(=O)NC(C)(C)CO)cc(-c2ccc(Cl)cc2)n1` [Example 51, 2-(4-Chlorophenyl)-N-(1-hydroxy-2-methylpropan-2-yl)-6-(2-propan-2-yl-pyrazol-3-yl)-pyridine-4-carboxamide], for which the melting point came out at 165 °C. Further, on human EAAT3, the Kb came to 340 nM.
`CC(C)(C#N)NC(=O)c1cc(-c2ccc(Cl)cc2)nc(-c2ccnn2C(C)(C)C)c1` [Example 56, 2-(2-tert-Butyl-pyrazol-3-yl)-6-(4-chlorophenyl)-N-(2-cyano-propan-2-yl)-pyridine-4-carboxamide] showed a melting point of 230 °C. The compound further gave a Kb on human EAAT3 of 210 nM.
For `CC(C)(C)NC(=O)c1cc(-c2ccc(Cl)c(F)c2)nc(-c2ccnn2C(C)(C)C)c1` [Example 24, N-tert-Butyl-2-(2-tert-butyl-pyrazol-3-yl)-6-(4-chloro-3-fluoro-phenyl)-pyridine-4-carboxamide], in that order: 208 °C and 110 nM.
For `CC(C)n1nccc1-c1cc(C(=O)NC(C)(C)C2CC2)cc(-c2ccc(Cl)cc2)n1` [Example 49, 2-(4-Chlorophenyl)-N-(2-cyclopropyl-propan-2-yl)-6-(2-propan-2-yl-pyrazol-3-yl)-pyridine-4-carboxamide], in that order: 164 °C and 3100 nM.
In the same order, the values of `CCn1nccc1-c1cc(C(=O)NC(C)(C)C)cc(-c2ccc(F)cc2)n1` [Example 11, N-tert-Butyl-2-(2-ethylpyrazol-3-yl)-6-(4-fluorophenyl)-pyridine-4-carboxamide] are 170 °C and 360 nM.
As to `CC(C)(C)n1nccc1-c1cc(C(=O)NC(C)(C)C(F)(F)F)cc(-c2ccc(Cl)cc2)n1` [Example 54, 2-(2-tert-Butyl-pyrazol-3-yl)-6-(4-chlorophenyl)-N-(1,1,1-trifluoro-2-methyl-propan-2-yl)-pyridine-4-carboxamide], the melting point came to 206 °C. At human EAAT3, the Kb amounted to 440 nM.

These data come from patent publication US10457663B2, “Pyrazol-pyridine derivatives” (Hoffmann-La Roche Inc., priority 2016, dated 2019).
